# Experimental data published in PMC10047683, “A Novel Family of Lysosomotropic Tetracyclic Compounds for Treating Leukemia” (Cancers, 2023).
# Assays:
# primary AML samples = test: Cytotoxicity in primary AML samples (flow cytometry, blast gate); type: cell-based, human
# Source text: Primary AML samples were obtained at diagnosis from patients diagnosed at Hospital Clínic of Barcelona (Spain) and Hospital Germans Trias i Pujol (Badalona, Spain). AML diagnosis, classification, and risk stratification were based on the latest revised WHO criteria (Supplementary Table S1). Clinical characteristics of AML patients are summarized in Supplementary Table S1. Mononuclear cells (MNCs) were isolated with Ficoll density gradient centrifugation (GE Healthcare, Chicago, IL, USA). All patients provided their written informed consent in accordance with the Declaration of Helsinki, and the study was approved by the corresponding ethics committees. Mature blood MNCs were isolated from healthy donors’ buffy coats provided by Banc de Sang i Teixits (BSiT, Barcelona, Spain). Umbilical-cord blood was provided by BSiT, and MNCs were depleted for lineage marker-positive cells using magnetic separation with the Human Lineage Cell Depletion kit (Miltenyi Biotec, North Rhine-Westphalia, Germany) following the manufacturer’s recommendations.
# (§1) First, 2 × 10^5 (72 h assays in cell lines (Supplementary File S1)), 3 × 10^5 (48 h assays in cell lines) or 7.5 × 10^5 (primary AML, healthy donor buffy coats) cells per mL were cultured in 96-well plates, and all drugs were added at the indicated concentrations. In α-tocopherol experiments, cells were treated with growing concentrations of α-tocopherol and EDK drugs for 48 h. In the NAC and 3MA experiments, treatment was simultaneous with EDK compounds. In glucose deprivation experiments, cells were cultivated with a standard medium (glucose high, 2 g/L), a standard medium without glucose, or a standard medium with galactose (2 g/L) and without glucose. Cell viability was measured via 7-AAD (eBioscience) exclusion and Hoechst33342 (Sigma-Aldrich, St. Louis, MO, USA) positivity staining via flow cytometry, and the cell count was obtained through volume. In the experiments with the primary cells, analyses were performed inside the blast population as detected via blast gates (CD45^low SSC^int). For solid tumor cell lines, viability was analyzed using CellTiter-Glo® Luminescent Cell Viability Assay (Promega).
# [1] = test system: healthy donor blood samples (BC: buffy coat); test: Combination with ATO, viability by flow cytometry and Bliss synergy; type: cell-based, human; details: 48 h
# Protocol: as §1
# (§2) Synergy was calculated using SynergyFinder 2.0 with the Bliss reference model.
# AML patient samples = test: as above; type: cell-based, human; details: for Effectivity (%Viability reduction): 48 h
# Protocol: as §1, §2
# AML cell lines = test: Seahorse oxygen consumption (OCR); type: cell-based; details: 5 and 10 µM, 24 h
# Protocol: Seahorse studies were performed using the Agilent Seahorse XF Real-Time ATP Rate Assay Kit. […] Cells were washed and suspended in Seahorse medium (Seahorse XF medium with 2 mM glutamine, 10 mM glucose, 2 mM pyruvate) at a concentration of 1.4 × 10^6 (Mono Mac1) and 2.4 × 10^6 (HL60) cells per mL; 50 μL per well were seeded in 96-well Seahorse plates precoated with polylysine, centrifuged, and left to adhere for 20 min at 37 °C before adding prewarmed Seahorse medium to a final volume of 180 μL per well. Basal OCR and ECAR were measured, and the ATP rate assay was performed with the sequential injection of 1.5 μM oligomycin and 0.5 μM rotenone/antimycin A. A detailed description of this protocol was provided by the manufacturers. Mitochondrial ROS was quantified using the MitoSOX Red Mitochondrial Superoxide Indicator (Thermo Fischer Scientific, Waltham, MA, USA), as previously described. The activation of executive caspases was determined using CaspaseGlo® 3/7 Assay (Promega), following the manufacturer’s recommendations. The detection of Annexin-V staining was also described previously.
# MonoMac1 AML cells = test: MonoMac1 AML xenograft, bone-marrow engraftment; type: in vivo, NSG mice; details: 30 mg/kg IP, 10 consecutive days; engraftment at Day 12
# Protocol: We myeloablated 6–8-week-old NOD.Cg-Prkdc^scid Il2rg^tm1Wjl/SzJ (NSG, Jackson Laboratories) mice with busulfan (30 mg/kg IP) at Day 0. The next day, mice were transplanted with KG1 (10 million cells per mouse) or MonoMac1 (1 million per mouse) AML cells that had previously been transduced with luciferase-containing plasmid pLL-EF1a-rFLuc-T2A-GFP (Systems Bioscience #LL410PA-1) and left untreated for 3 (MonoMac1) or 5 days (KG1). For IP administration, compounds were dissolved in DMSO and diluted in saline prior to injection. For SC treatments, drugs were solubilized using Tween 80 (Escuder) and high-viscosity carboxymethylcellulose (CMC, Merck). For bioluminescence detection, mice were SC-administered 150 mg/kg Xenolight D-luciferin potassium salt luminescent substrate (Perkin Elmer), and the luminescence of isoflurane-anesthetized mice was acquired after 10 min in an IVIS Lumina II imaging device (Perkin Elmer) at adequate acquisition times (2 min for MonoMac-1, 30 s for KG1). The following quantitation and analysis were conducted with Aura Imaging software (Spectral Instruments Imaging). The last day of the experiment, mice were culled, and tibias and femurs were harvested. Engraftment was determined as the percentage of live human CD45-expressing cells in the bone marrow as assessed with flow cytometry. […]
smiles,measurement,setting,value
CN1CCC(=C2c3ccccc3-c3c2sc2ccccc32)CC1 [EDK-87],reduced the numbers of primary leukemic cells,"primary AML samples; 14 primary AML samples, 72 h, EDK-87 10 and 25 µM, EDK-88 5 and 10 µM assayed",43% ± 8.5
same,# Live cells refer to control,"primary AML samples; AML sample #61, 5 µM, 72 h",112%
same,# Live cells refer to control,"primary AML samples; AML sample #61, 10 µM, 72 h",107%
same,# Live cells refer to control,"primary AML samples; AML sample #61, 25 µM, 72 h",47%
same,# Live cells refer to control,"primary AML samples; AML sample #63, 5 µM, 72 h",71%
same,# Live cells refer to control,"primary AML samples; AML sample #63, 10 µM, 72 h",37%
same,# Live cells refer to control,"primary AML samples; AML sample #63, 25 µM, 72 h",13%
same,# Live cells refer to control,"primary AML samples; AML sample #98, 5 µM, 72 h",59%
same,# Live cells refer to control,"primary AML samples; AML sample #98, 10 µM, 72 h",26%
same,# Live cells refer to control,"primary AML samples; AML sample #98, 25 µM, 72 h",5%
same,# Live cells refer to control,"primary AML samples; AML sample #130, 5 µM, 72 h",97%
same,# Live cells refer to control,"primary AML samples; AML sample #130, 10 µM, 72 h",97%
same,# Live cells refer to control,"primary AML samples; AML sample #130, 25 µM, 72 h",35%
same,# Live cells refer to control,"primary AML samples; AML sample #132, 5 µM, 72 h",74%
same,# Live cells refer to control,"primary AML samples; AML sample #132, 10 µM, 72 h",60%
same,# Live cells refer to control,"primary AML samples; AML sample #133, 5 µM, 72 h",60%
same,# Live cells refer to control,"primary AML samples; AML sample #133, 10 µM, 72 h",19%
same,# Live cells refer to control,"primary AML samples; AML sample #134, 5 µM, 72 h",97%
same,# Live cells refer to control,"primary AML samples; AML sample #134, 10 µM, 72 h",89%
same,# Live cells refer to control,"primary AML samples; AML sample #135, 5 µM, 72 h",94%
same,# Live cells refer to control,"primary AML samples; AML sample #135, 10 µM, 72 h",80%
same,# Live cells refer to control,"primary AML samples; AML sample #135, 25 µM, 72 h",14%
same,# Live cells refer to control,"primary AML samples; AML sample #136, 5 µM, 72 h",97%
same,# Live cells refer to control,"primary AML samples; AML sample #136, 10 µM, 72 h",51%
same,# Live cells refer to control,"primary AML samples; AML sample #136, 25 µM, 72 h",2%
same,# Live cells refer to control,"primary AML samples; AML sample #141, 5 µM, 72 h",77%
same,# Live cells refer to control,"primary AML samples; AML sample #141, 10 µM, 72 h",52%
same,# Live cells refer to control,"primary AML samples; AML sample #147, 5 µM, 72 h",17%
same,# Live cells refer to control,"primary AML samples; AML sample #148, 5 µM, 72 h",47%
same,# Live cells refer to control,"primary AML samples; AML sample #148, 10 µM, 72 h",5%
same,# Live cells refer to control,"primary AML samples; AML sample #152, 5 µM, 72 h",83%
same,# Live cells refer to control,"primary AML samples; AML sample #152, 10 µM, 72 h",56%
same,# Live cells refer to control,"primary AML samples; AML sample #153, 5 µM, 72 h",78%
same,# Live cells refer to control,"primary AML samples; AML sample #153, 10 µM, 72 h",65%
same,therapeutic window (viability),primary AML samples; primary AML vs healthy-donor blood cells,2.4
same,Effectivity (%Viability reduction),"[1]; BC#1, single agent 1 µM",0%
same,Effectivity (%Viability reduction),"[1]; BC#1, single agent 5 µM",4%
same,Effectivity (%Viability reduction),"[1]; BC#1, single agent 10 µM",19%
same,Effectivity (%Viability reduction),"[1]; BC#2, single agent 1 µM",0%
same,Effectivity (%Viability reduction),"[1]; BC#2, single agent 5 µM",4%
same,Effectivity (%Viability reduction),"[1]; BC#2, single agent 10 µM",14%
same,synergy with ATO,AML patient samples; AML cell lines and three primary AML samples,highly synergistic
same,Effectivity (%Viability reduction),"AML patient samples; AML#63, single agent 5 µM",-5%
same,Effectivity (%Viability reduction),"AML patient samples; AML#63, single agent 10 µM",-19%
same,Effectivity (%Viability reduction),"AML patient samples; AML#98, single agent 1 µM",-9%
same,Effectivity (%Viability reduction),"AML patient samples; AML#98, single agent 5 µM",0%
same,Effectivity (%Viability reduction),"AML patient samples; AML#98, single agent 10 µM",8%
same,Effectivity (%Viability reduction),"AML patient samples; AML#133, single agent 1 µM",-9%
same,Effectivity (%Viability reduction),"AML patient samples; AML#133, single agent 5 µM",3%
same,Effectivity (%Viability reduction),"AML patient samples; AML#133, single agent 10 µM",19%
same,oxygen consumption (OCR),AML cell lines,drastic reduction in oxygen consumption
same,reduced the leukemic burden in the bone marrow,MonoMac1 AML cells,58.44%
